According to ChEMBL document CHEMBL1201862, “PubChem BioAssay data set” (2004):
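48-hour exposure; five concentrations; linearly interpolated endpoints. GI50 = concentration required for 50% inhibition of growth.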 Activity calls are given as the source filed them. Rule as the data show it: active = GI50 up to about 1.1 µM and inactive = higher.

Experiments:
Assay in all cases: NCI anticancer screen, dose series, 48 h
HL-60 = system: HL-60
Hs-578T = system: Hs-578T
HCC 2998 = system: HCC 2998
SW-620 = system: SW-620
HT-29 = system: HT-29
UO-31 = system: UO-31
SF-295 = system: SF-295
HOP-62 = system: HOP-62
NCI-H522 = system: NCI-H522
ACHN = system: ACHN
SK-MEL-2 = system: SK-MEL-2
IGROV-1 = system: IGROV-1
K562 = system: K562
NCI-H460 = system: NCI-H460
SF-268 = system: SF-268
OVCAR-3 = system: OVCAR-3
DU-145 = system: DU-145
NCI-H23 = system: NCI-H23
SK-MEL-5 = system: SK-MEL-5
PC-3 = system: PC-3

Row | Structure (SMILES) | GI50 (HL-60) | GI50 (Hs-578T) | GI50 (HCC 2998) | GI50 (SW-620) | GI50 (HT-29) | GI50 (UO-31) | GI50 (SF-295) | GI50 (HOP-62) | GI50 (NCI-H522) | GI50 (ACHN) | GI50 (SK-MEL-2) | GI50 (IGROV-1) | GI50 (K562) | GI50 (NCI-H460) | GI50 (SF-268) | GI50 (OVCAR-3) | GI50 (DU-145) | GI50 (NCI-H23) | GI50 (SK-MEL-5) | GI50 (PC-3)
1 | C[C@]12CC[C@H](O)C[C@@H]1CC[C@@H]1[C@@H]2CC[C@]2(C)[C@@H](C3=CC(=O)OC3)CC[C@]12O | 2.88 µM (inactive) | 4.21 µM (inactive) | 3.05 µM (inactive) | 3.51 µM (inactive) | 3.44 µM (inactive) | 2.37 µM (inactive) | 2.73 µM (inactive) | 1.6 µM (inactive) | 0.719 µM (active) | 0.687 µM (active) | 3.33 µM (inactive) | 3.26 µM (inactive) | 3.97 µM (inactive) | 0.673 µM (active) | 1.75 µM (inactive) | 3.12 µM (inactive) | 1.49 µM (inactive) | 1.87 µM (inactive) | 1.15 µM (inactive) | 2.58 µM (inactive)
2 | CSc1nnnc2ccccc12 | > 100 µM (inactive) | > 100 µM (inactive) | > 100 µM (inactive) | > 100 µM (inactive) | > 100 µM (inactive) | > 100 µM (inactive) | > 100 µM (inactive) | > 100 µM (inactive) | > 100 µM (inactive) | > 100 µM (inactive) | > 100 µM (inactive) | > 100 µM (inactive) | > 100 µM (inactive) | > 100 µM (inactive) | > 100 µM (inactive) | > 100 µM (inactive) | > 100 µM (inactive) | > 100 µM (inactive) | > 100 µM (inactive) | > 100 µM (inactive)
3 | Cn1cc(C2NC(=O)c3ccccc3N2)c2ccccc21 (stereo not given) | 0.12 µM (active) | 0.649 µM (active) | 1.19 µM (inactive) | 0.542 µM (active) | 0.191 µM (active) | > 100 µM (inactive) | 0.305 µM (active) | 0.861 µM (active) | 0.695 µM (active) | 1.75 µM (inactive) | 2.02 µM (inactive) | 1.51 µM (inactive) | 0.125 µM (active) | 1.06 µM (active) | 3.86 µM (inactive) | 0.489 µM (active) | 0.887 µM (active) | 1.31 µM (inactive) | 0.182 µM (active) | 0.188 µM (active)
4 | O=C1Nc2ccccc2/C1=N/N=c1\cccc[nH]1 | 16 µM (inactive) | 39.1 µM (inactive) | 23.7 µM (inactive) | > 100 µM (inactive) | 22.2 µM (inactive) | 12.1 µM (inactive) | 51.9 µM (inactive) | 34.1 µM (inactive) | 17.1 µM (inactive) | 11 µM (inactive) | > 100 µM (inactive) | 1 µM (active) | 52.5 µM (inactive) | 14.6 µM (inactive) | 35.4 µM (inactive) | 48.8 µM (inactive) | 21 µM (inactive) | 28.2 µM (inactive) | 40.4 µM (inactive) | 52.8 µM (inactive)
5 | CCCCn1c(C)c2c(c1C)C(=O)N(CCN1CCN(c3ccccc3Cl)CC1)C2=O | 22.1 µM (inactive) | > 100 µM (inactive) | 30.6 µM (inactive) | 37.5 µM (inactive) | 16.4 µM (inactive) | 17.6 µM (inactive) | 23.1 µM (inactive) | 29 µM (inactive) | 25.5 µM (inactive) | 38.1 µM (inactive) | 20 µM (inactive) | 30.9 µM (inactive) | 31.6 µM (inactive) | 35.5 µM (inactive) | 17.6 µM (inactive) | 50.7 µM (inactive) | 36 µM (inactive) | 27.2 µM (inactive) | 19.9 µM (inactive) | 28.4 µM (inactive)
6 | Nc1cc(N)cc(Cc2ccccc2)c1 | > 100 µM (inactive) | > 100 µM (inactive) | > 100 µM (inactive) | > 100 µM (inactive) | > 100 µM (inactive) | > 100 µM (inactive) | > 100 µM (inactive) | > 100 µM (inactive) | > 100 µM (inactive) | > 100 µM (inactive) | > 100 µM (inactive) | > 100 µM (inactive) | > 100 µM (inactive) | > 100 µM (inactive) | > 100 µM (inactive) | > 100 µM (inactive) | > 100 µM (inactive) | > 100 µM (inactive) | > 100 µM (inactive) | > 100 µM (inactive)
7 | C=C1C(=O)OC2C3C(=C)[C@@H](OC(C)=O)CC3C(C)=CC(OC(=O)C(C)(OC(C)=O)C(C)OC(C)=O)[C@@H]12 (stereo not given in full) | 2.52 µM (inactive) | 23.4 µM (inactive) | 18.6 µM (inactive) | 9.33 µM (inactive) | 14.4 µM (inactive) | 16.4 µM (inactive) | 61.2 µM (inactive) | 37.4 µM (inactive) | 2.52 µM (inactive) | 13.7 µM (inactive) | 12.3 µM (inactive) | 18.5 µM (inactive) | 7.29 µM (inactive) | 23.6 µM (inactive) | 21.7 µM (inactive) | 13.2 µM (inactive) | 16.1 µM (inactive) | 18.6 µM (inactive) | 12.6 µM (inactive) | 17.3 µM (inactive)
8 | CSc1ccc2c(cc1=O)[C@@H](NC(=O)c1ccc([N+](=O)[O-])cc1)CCc1cc(O)c(O)c(O)c1-2 | 11.7 µM (inactive) | 21.2 µM (inactive) | > 100 µM (inactive) | 43.6 µM (inactive) | 17.8 µM (inactive) | 78.3 µM (inactive) | 32.8 µM (inactive) | 16.2 µM (inactive) | 37.2 µM (inactive) | 29.7 µM (inactive) | > 100 µM (inactive) | 35.4 µM (inactive) | 18.4 µM (inactive) | 40 µM (inactive) | 59 µM (inactive) | 15.7 µM (inactive) | > 100 µM (inactive) | 45.3 µM (inactive) | 18.7 µM (inactive) | > 100 µM (inactive)
9 | c1nc(OCC2CCCCC2)c2nc[nH]c2n1 | > 100 µM (inactive) | > 100 µM (inactive) | > 100 µM (inactive) | 59.6 µM (inactive) | 49.9 µM (inactive) | 42.9 µM (inactive) | 50.9 µM (inactive) | 55.7 µM (inactive) | 44.4 µM (inactive) | 10.1 µM (inactive) | 40.6 µM (inactive) | 46.5 µM (inactive) | 99.8 µM (inactive) | 72.6 µM (inactive) | 44.5 µM (inactive) | 53.1 µM (inactive) | 73.8 µM (inactive) | 45.3 µM (inactive) | 26.1 µM (inactive) | 85.9 µM (inactive)
10 | c1ccc2c3c(c(N4CCNCC4)nc2c1)CCCC3 | 8.93 µM (inactive) | 27.7 µM (inactive) | 1.95 µM (inactive) | 17 µM (inactive) | 14.2 µM (inactive) | 2.9 µM (inactive) | 21.6 µM (inactive) | 17.7 µM (inactive) | 15.3 µM (inactive) | 14.5 µM (inactive) | 12.6 µM (inactive) | 12.4 µM (inactive) | 5.5 µM (inactive) | 15.1 µM (inactive) | 15.2 µM (inactive) | 15.5 µM (inactive) | 15.3 µM (inactive) | 14.6 µM (inactive) | 12 µM (inactive) | 13 µM (inactive)
